Data on 4 compounds can be found in patent publication US20070270484A1, “3'-N-Substituted-3-O-Substituted Erythronolide a Derivatives” (priority 2003, published 2007).

≈ marks a conversion by molar mass, not a printed value.

In one assay the test system is S. pneum 1275 (erm). The experiment in a line: microbe, parasite or virus in culture. Type of assay: cell-based, streptococcus pneumoniae. The settings on record: for Minimum Inhibitory Concentrations, S. pneum 1275 (erm): agar dilution, 18-24 hours, 35±2° C., 5% CO2, erm: ribosomal modification (mutation) erm genes. On the procedure:
(§1) Drug dilutions and the agar plates are prepared by NCCLS method. Inoculum is prepared by direct colony suspensions in normal saline and adjusted to 0.5 McFarland turbidity and subsequently diluted as per NCCLS guidelines in order to obtain 10^4 CFU/spot. CFU/ml of a few randomly selected cultures is performed. The cultures are replicated on the agar plates using replicator (Denley's multipoint). The plates are incubated at 35±2° C. and in 5% CO2 atmosphere (for respiratory and Haemophilus strains) for 18-24 hours at 35±2° C. Minimum inhibitory concentrations (MIC) are determined after 18-24 hours. Q. C. strains are also included in each run of the study. The cation content of Mueller Hinton agar is checked by performing disk […] of 10 μg gentamicin disk against Pseudomonas aeroginosa ATCC 27853. The zone of inhibition should fall between 16-21 mm. The concentration of drug at which there is complete disappearance of growth spot or formation of less than 10 colonies per spot is considered as MIC.
Background: Agar dilution tests growth on a series of plates holding different concentrations.

The subject of the next assay is S. pneum 1294 (mef). The experiment in a line: microbe, parasite or virus in culture. In kind it is cell-based, streptococcus pneumoniae. The settings on record: agar dilution, 18-24 hours, 35±2° C., 5% CO2; mef: efflux pump mef genes. On the procedure:
as §1

A further assay relates to S. pneum AB 14 (erm). As to the kind of experiment: microbe, parasite or virus in culture. In kind it is cell-based, streptococcus pneumoniae. The following applies: agar dilution, 18-24 hours, 35±2° C., 5% CO2; erm: ribosomal modification (mutation) erm genes. On the procedure:
as §1

A further assay concerns S. pneum AB 30 (erm). As to the kind of experiment: microbe, parasite or virus in culture. The settings on record: for Minimum Inhibitory Concentrations, S. pneum AB 30 (erm): agar dilution, 18-24 hours, 35±2° C., 5% CO2, erm: ribosomal modification (mutation) erm genes. In kind it is cell-based, streptococcus pneumoniae. On the procedure: as §1
In a further assay the test system is S. pneum 1256 (erm). The experiment in a line: microbe, parasite or virus in culture. Type of assay: cell-based, streptococcus pneumoniae. The settings on record: agar dilution, 18-24 hours, 35±2° C., 5% CO2; erm: ribosomal modification (mutation) erm genes. On the procedure: as §1
A further assay has as its system S. pneum AB 29 (erm). As to the kind of experiment: microbe, parasite or virus in culture. Type of assay: cell-based, streptococcus pneumoniae. The settings on record: for Minimum Inhibitory Concentrations, S. pneum AB 29 (erm): agar dilution, 18-24 hours, 35±2° C., 5% CO2, erm: ribosomal modification (mutation) erm genes. How it is done:
as §1

The subject of the next assay is S. pneum ATCC 6303. As to the kind of experiment: MIC, agar incorporation method (NCCLS agar dilution method). Type of assay: cell-based, streptococcus pneumoniae. The settings on record: 35±2° C.; for Minimum Inhibitory Concentrations, S. pneum ATCC 6303: 18-24 hours, 5% CO2. How it is done: as §1
A further assay has as its system S. pneum CS 1687 (mef). Described as above. In kind it is cell-based, streptococcus pneumoniae. The following applies: 18-24 hours, 35±2° C., 5% CO2, mef: efflux pump mef genes. How it is done:
as §1

Another assay concerns S. pneum 1251 (mef). The description is as above. Type of assay: cell-based, streptococcus pneumoniae. The following applies: 18-24 hours, 35±2° C., 5% CO2, mef: efflux pump mef genes. On the procedure: as §1
The subject of the next assay is S. pneum ATCC 49619. The description is as above. Type of assay: cell-based, streptococcus pneumoniae. The following applies: 35±2° C.; for Minimum Inhibitory Concentrations, S. pneum ATCC 49619: 18-24 hours, 5% CO2. How it is done: as §1
For another assay, the system named is S. pneum AB 34 (mef). The assay is described as above. Type of assay: cell-based, streptococcus pneumoniae. The settings on record: 18-24 hours, 35±2° C., 5% CO2, mef: efflux pump mef genes. On the procedure:
as §1

For a further assay, the system named is MoraXella MI. The description is as above. Type of assay: cell-based. The settings on record: 18-24 hours, 35±2° C. How it is done: as §1
The test system of the next assay is H. inflenza ATCC 49247. The assay is described as above. Type of assay: cell-based, Haemophilus influenzae. The settings on record: for Minimum Inhibitory Concentrations, H. inflenza ATCC 49247: agar dilution, 18-24 hours, 35±2° C., 5% CO2. How it is done:
Minimum inhibitory concentrations (μg/ml) were obtained for representative compounds of the invention, which are given in Table 2.
as §1

“3-O-(2-Fluorophenyl)acetyl-5-O-(3′-N-desmethyl-3′-N-allyl)desosaminyl-6-O-methyl erythronolide A [Compound No. 23]”: the “Minimum Inhibitory Concentrations, S. pneum 1275 (erm)” value in the assay with S. pneum 1275 (erm) is more than 16 µg/mL. The “Minimum Inhibitory Concentrations, S. pneum 1294 (mef)” value in the assay with S. pneum 1294 (mef) was 2 µg/mL. For the same compound, the “Minimum Inhibitory Concentrations, S. pneum AB 14 (erm)” value in the assay on S. pneum AB 14 (erm) was more than 16 µg/mL. For the same compound, the “Minimum Inhibitory Concentrations, S. pneum AB 30 (erm)” value in the assay on S. pneum AB 30 (erm) is more than 16 µg/mL. Moreover, the “Minimum Inhibitory Concentrations, S. pneum 1256 (erm)” value with S. pneum 1256 (erm) was more than 16 µg/mL. Besides, the “Minimum Inhibitory Concentrations, S. pneum AB 29 (erm)” value with S. pneum AB 29 (erm) was found to be 1 µg/mL. Moreover, the “Minimum Inhibitory Concentrations, S. pneum ATCC 6303” value in the assay on S. pneum ATCC 6303 turned out to be 2 µg/mL. In addition, the “Minimum Inhibitory Concentrations, S. pneum CS 1687 (mef)” value with S. pneum CS 1687 (mef) came out at 2 µg/mL. Also, the “Minimum Inhibitory Concentrations, S. pneum 1251 (mef)” value in the assay with S. pneum 1251 (mef) was determined as 2 µg/mL. Moreover, the “Minimum Inhibitory Concentrations, S. pneum ATCC 49619” value in the assay on S. pneum ATCC 49619 was 2 µg/mL. In the assay on S. pneum AB 34 (mef), the “Minimum Inhibitory Concentrations, S. pneum AB 34 (mef)” value was more than 16 µg/mL. Further, in the assay with MoraXella MI, the “Minimum Inhibitory Concentrations, MoraXella MI” value turned out to be 16 µg/mL. Further, in the assay with H. inflenza ATCC 49247, the “Minimum Inhibitory Concentrations, H. inflenza ATCC 49247” value is more than 16 µg/mL.
Regarding `CC[C@H]1OC(=O)[C@H](C)C(=O)[C@H](C)[C@@H](O[C@@H]2O[C@H](C)C[C@H](N(C)C)[C@H]2O)[C@](C)(OC)C[C@@H](C)C(=O)[C@H](C)[C@H]2N(CCCCn3cnc(-c4cccnc4)c3)C(=O)O[C@]12C` [T, Telithromycin, reference compound], the MIC with S. pneum 1275 (erm) (Streptococcus pneumoniae, read-out: Minimum Inhibitory Concentrations, S. pneum 1275 (erm)) stood at 0.008 µg/mL (≈ 0.00985 µM); in the assay on S. pneum AB 30 (erm) (Streptococcus pneumoniae, read-out: Minimum Inhibitory Concentrations, S. pneum AB 30 (erm)) it was 0.25 µg/mL (≈ 0.308 µM); with S. pneum AB 29 (erm) (Streptococcus pneumoniae, read-out: Minimum Inhibitory Concentrations, S. pneum AB 29 (erm)), 0.25 µg/mL (≈ 0.308 µM); in the assay on S. pneum ATCC 6303 (Streptococcus pneumoniae, ATCC6303, 18-24 hours, 5% CO2, read-out: Minimum Inhibitory Concentrations, S. pneum ATCC 6303), 0.015 µg/mL (≈ 0.0185 µM); in the assay on S. pneum CS 1687 (mef) (Streptococcus pneumoniae, read-out: Minimum Inhibitory Concentrations, S. pneum CS 1687 (mef)), 0.125 µg/mL (≈ 0.154 µM); with S. pneum 1251 (mef) (Streptococcus pneumoniae, read-out: Minimum Inhibitory Concentrations, S. pneum 1251 (mef)), 0.5 µg/mL (≈ 0.616 µM). Further, the MIC turned out to be 0.008 µg/mL (≈ 0.00985 µM) in the assay on S. pneum ATCC 49619 (Streptococcus pneumoniae, ATCC49619, 18-24 hours, 5% CO2, read-out: Minimum Inhibitory Concentrations, S. pneum ATCC 49619); 0.125 µg/mL (≈ 0.154 µM) with S. pneum AB 34 (mef) (Streptococcus pneumoniae, read-out: Minimum Inhibitory Concentrations, S. pneum AB 34 (mef)); 0.03 µg/mL (≈ 0.0369 µM) in the assay on MoraXella MI (Moraxella, read-out: Minimum Inhibitory Concentrations, MoraXella MI); 2 µg/mL (≈ 2.46 µM) in the assay with H. inflenza ATCC 49247 (Haemophilus influenzae, ATCC49247, read-out: Minimum Inhibitory Concentrations, H. inflenza ATCC 49247).
For “3-O-(2-Pyridyl)acetyl-5-O-(3′-N-desmethyl-3′-N-cyclopropylmethyl)desosaminyl-6-O-methyl erythronolide A [Compound No. 50]”, in the assay on S. pneum 1275 (erm), the “Minimum Inhibitory Concentrations, S. pneum 1275 (erm)” value is more than 16 µg/mL. The “Minimum Inhibitory Concentrations, S. pneum 1294 (mef)” value in the assay on S. pneum 1294 (mef) came out at 2 µg/mL. Besides, the “Minimum Inhibitory Concentrations, S. pneum AB 14 (erm)” value with S. pneum AB 14 (erm) is more than 16 µg/mL. Moreover, the “Minimum Inhibitory Concentrations, S. pneum AB 30 (erm)” value in the assay with S. pneum AB 30 (erm) was more than 16 µg/mL. Also, in the assay on S. pneum 1256 (erm), the “Minimum Inhibitory Concentrations, S. pneum 1256 (erm)” value was more than 16 µg/mL. The “Minimum Inhibitory Concentrations, S. pneum AB 29 (erm)” value in the assay with S. pneum AB 29 (erm) was found to be 0.5 µg/mL. The “Minimum Inhibitory Concentrations, S. pneum ATCC 6303” value in the assay with S. pneum ATCC 6303 was found to be 0.5 µg/mL. For the same compound, the “Minimum Inhibitory Concentrations, S. pneum CS 1687 (mef)” value in the assay on S. pneum CS 1687 (mef) was determined as 1 µg/mL. In addition, the “Minimum Inhibitory Concentrations, S. pneum 1251 (mef)” value in the assay on S. pneum 1251 (mef) is 0.5 µg/mL. The “Minimum Inhibitory Concentrations, S. pneum ATCC 49619” value in the assay on S. pneum ATCC 49619 turned out to be 0.5 µg/mL. The “Minimum Inhibitory Concentrations, S. pneum AB 34 (mef)” value with S. pneum AB 34 (mef) is more than 16 µg/mL. For the same compound, the “Minimum Inhibitory Concentrations, MoraXella MI” value in the assay with MoraXella MI came out at 2 µg/mL. The “Minimum Inhibitory Concentrations, H. inflenza ATCC 49247” value in the assay with H. inflenza ATCC 49247 was more than 16 µg/mL.
`CCC1OC(=O)C(C)C(OC(=O)Cc2ccc(F)cc2F)C(C)C(OC2OC(C)CC(N(C)Cc3ccccc3)C2O)C(C)(OC)CC(C)C(=O)C(C)C(O)C1(C)O` (stereo not drawn) [Compound No. 74, 3-O-(2,4-Difluorophenyl)acetyl-5-O-(3′-N-desmethyl-3′-N-benzyl) desosaminyl-6-O-methyl erythronolide A]: the “Minimum Inhibitory Concentrations, S. pneum 1275 (erm)” value in the assay with S. pneum 1275 (erm) is more than 16 µg/mL. Further, in the assay on S. pneum 1294 (mef), the “Minimum Inhibitory Concentrations, S. pneum 1294 (mef)” value was more than 16 µg/mL. Moreover, in the assay with S. pneum AB 14 (erm), the “Minimum Inhibitory Concentrations, S. pneum AB 14 (erm)” value was 16 µg/mL. Further, the “Minimum Inhibitory Concentrations, S. pneum AB 30 (erm)” value with S. pneum AB 30 (erm) is more than 16 µg/mL. Also, the “Minimum Inhibitory Concentrations, S. pneum 1256 (erm)” value with S. pneum 1256 (erm) was more than 16 µg/mL. The “Minimum Inhibitory Concentrations, S. pneum AB 29 (erm)” value in the assay with S. pneum AB 29 (erm) was more than 16 µg/mL. For the same compound, the “Minimum Inhibitory Concentrations, S. pneum ATCC 6303” value with S. pneum ATCC 6303 worked out at 8 µg/mL. Further, in the assay with S. pneum CS 1687 (mef), the “Minimum Inhibitory Concentrations, S. pneum CS 1687 (mef)” value was more than 16 µg/mL. Moreover, the “Minimum Inhibitory Concentrations, S. pneum 1251 (mef)” value in the assay on S. pneum 1251 (mef) was more than 16 µg/mL. In addition, in the assay with S. pneum ATCC 49619, the “Minimum Inhibitory Concentrations, S. pneum ATCC 49619” value is more than 16 µg/mL. In addition, the “Minimum Inhibitory Concentrations, S. pneum AB 34 (mef)” value with S. pneum AB 34 (mef) was more than 16 µg/mL. The “Minimum Inhibitory Concentrations, MoraXella MI” value with MoraXella MI is more than 16 µg/mL.
